Measured values reported in patent US20260226086A1, “COMPOUNDS AND COMPOSITIONS AS STAT3 DEGRADERS AND USES THEREOF” (REGENTS OF THE UNIVERSITY OF MICHIGAN, priority 2023, published 2026).

Legend:
STAT3 = biological target: T1, STAT3 (Homo sapiens, UniProt P40763); assay: HiBiT assay, STAT3 degradation in STAT3-HiBiT KI HeLa cells; assay type: cell-based; settings: for Dmax at 1 µM / DC50: 24 h; for DC50: read-out: STAT3 Degradation (HeLa 24 h HiBit) DC50
T1 construct: This cell line is a clone created by using CRISPR-Cas9 to fuse HiBiT to the 3′ end of STAT3 in HeLa cells; host or cells: STAT3-HiBiT KI HeLa cell line (CRISPR-Cas9 knock-in clone)
T1 sequence (P40763 whole entry): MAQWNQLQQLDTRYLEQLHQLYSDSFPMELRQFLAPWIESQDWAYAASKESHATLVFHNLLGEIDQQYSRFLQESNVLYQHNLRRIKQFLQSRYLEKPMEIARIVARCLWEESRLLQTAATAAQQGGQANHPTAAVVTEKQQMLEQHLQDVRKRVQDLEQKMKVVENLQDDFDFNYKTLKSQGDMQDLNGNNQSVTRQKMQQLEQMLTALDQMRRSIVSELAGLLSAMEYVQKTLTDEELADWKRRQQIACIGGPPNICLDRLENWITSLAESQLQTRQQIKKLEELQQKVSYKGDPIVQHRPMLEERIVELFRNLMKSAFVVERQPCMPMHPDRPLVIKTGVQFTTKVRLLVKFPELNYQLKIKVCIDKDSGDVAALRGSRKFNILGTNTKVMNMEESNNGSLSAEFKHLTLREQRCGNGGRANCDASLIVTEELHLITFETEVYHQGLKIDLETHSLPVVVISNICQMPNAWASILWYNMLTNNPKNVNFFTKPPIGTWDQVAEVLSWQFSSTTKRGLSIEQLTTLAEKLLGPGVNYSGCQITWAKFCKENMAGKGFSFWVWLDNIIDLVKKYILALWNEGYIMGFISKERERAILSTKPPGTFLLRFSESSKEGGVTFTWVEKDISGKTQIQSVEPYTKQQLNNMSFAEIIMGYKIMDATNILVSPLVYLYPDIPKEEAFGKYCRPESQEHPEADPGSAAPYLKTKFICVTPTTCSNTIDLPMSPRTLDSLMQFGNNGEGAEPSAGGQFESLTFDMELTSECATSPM
Method: STAT3 degradation may be determined by HiBiT assay. STAT3-HiBiT KI HeLa cell line, which is a clone created by using CRTISPR-Cas9 to fuse HiBiT to the 3′ end of STAT3 in HeLa cells, may be used for this assay. In a typical procedure, cells seeded at certain amounts of cells (e.g., 20000 cells) per well are incubated with serially diluted compounds for certain period of time (e.g., 24 hours) under certain conditions (e.g., at 37° C. with 5% CO2). At the end of treatment, Nano-Glo HiBiT Lytic Detection reagents is added to the wells and luminescence is acquired on TECAN SPARK plate reader. Untreated cells are used as control. Data points are fit with a four-parameter equation to generate a concentration-response curve. IC50 values are calculated using a nonlinear regression analysis of the mean±SD from triplicate.
STAT3-HiBiT KI HeLa cell line was purchased from Promega. This cell line is a clone created by using CRISPR-Cas9 to fuse HiBiT to the 3′ end of STAT3 in HeLa cells. DMEM medium and FBS were purchased from Gibco/Thermo Fisher Scientific. STAT3 degradation was determined based on quantification of luminescent signal using Nano-Glo HiBiT Lytic Detection System. In a typical procedure, cells seeded at 20000 cells per well in 96-well white plates (Corning) were incubated with serially diluted compounds for 24 hours at 37° C. with 5% CO2. At the end of treatment, Nano-Glo HiBiT Lytic Detection reagents was added to the wells and luminescence was acquired on TECAN SPARK plate reader. Untreated cells were used as control. Data points were fit with a four-parameter equation to generate a concentration-response curve. IC50 values were calculated using a nonlinear regression analysis of the mean±SD from triplicate.

SUP-M2 cells = assay: CellTiter-Glo 2.0 cell viability assay, SUP-M2; assay type: cell-based; settings: SUP-M2, 96 h, 4 days
Method: For example, cell viability may be determined by CellTiter-Glo 2.0 Cell Viability Assay. In a typical procedure, cells seeded at certain amounts of cells (e.g., 1000 cells) per well are incubated with serially diluted compounds for certain period (e.g., 4 days) under certain conditions (e.g., at 37° C. with 5% CO2). At the end of treatment, CellTiter-Glo 2.0 is added to the wells and luminescence is acquired on TECAN SPARK plate reader. Untreated cells are used as control, Data points are fit with an equation (e.g., a four-parameter equation) to generate a concentration-response curve. IC50 values are calculated using a nonlinear regression analysis of the mean±SD from triplicate.
SU-DHL-1 and SUP-M2 cell viability was determined by CellTiter-Glo 2.0 Cell Viability Assay (Promega). SU-DHL-1 cell line was purchased from ATCC (Manassas, VA) and SUP-M2 (ACC-509) was purchased from DSMZ (Germany). RPMI 1640 medium and fetal bovine serum (FBS) were purchased from Gibco/Thermo Fisher Scientific. In a typical procedure, cells seeded at 1000 cells per well in 384-well white plates (Corning) were incubated with serially diluted compounds for 4 days at 37° C. with 5% C02. At the end of treatment, CellTiter-Glo 2.0 was added to the wells and luminescence was acquired on TECAN SPARK plate reader. Untreated cells were used as control. Data points were fit with a four-parameter equation to generate a concentration-response curve. IC50 values were calculated using a nonlinear regression analysis of the mean±SD from triplicate.

SMILES | Dmax at 1 µM (STAT3; @1 μM) [%] | DC50 (STAT3) [nM] | IC50 (SUP-M2 cells) [nM] | STAT3 Degradation (HeLa 24 h HiBit) Dmax (@1 μM) (STAT3; @1 μM)
COCCOCCOC[C@H](NC(=O)[C@@H]1C[C@@H](O)CN1C(=O)[C@@H](n1cc(CCCc2cccc(OC[C@H](CCC(N)=O)NC(=O)[C@@H]3CC[C@@H]4CCN(C(C)=O)C[C@H](NC(=O)c5cc6cc(C(=O)P(=O)(O)O)ccc6[nH]5)C(=O)N43)c2Cl)nn1)C(C)(C)C)c1ccc(-c2scnc2C)cc1 [Compound 27, (2-(((5S,8S,10aR)-3-acetyl-8-(((S)-5-amino-1-(2-chloro-3-(3-(1-((S)-1-((2S,4R)-4-hydroxy-2-(((R)-2-(2-(2-methoxyethoxy)ethoxy)-1-(4-(4-methylthiazol-5-yl)phenyl)ethyl)carbamoyl)pyrrolidin-1-yl)-3,3-dimethyl-1-oxobutan-2-yl)-1H-1,2,3-triazol-4-yl)propyl)phenoxy)-5-oxopentan-2-yl)carbamoyl)-6-oxodecahydropyrrolo[1,2-a][1,5]diazocin-5-yl)carbamoyl)-1H-indole-5-carbonyl)phosphonic acid] | > 80 | < 10 | – | –
CCS(=O)(=O)c1ccc(CNC(=O)[C@H](CCC(N)=O)NC(=O)[C@@H]2CC[C@@H]3CCN(C(=O)CCCCc4cn([C@@H](C(=O)N5C[C@H](O)C[C@H]5C(=O)N[C@H](C)c5ccc(-c6scnc6C)cc5)C5CCN(C)CC5)nn4)C[C@H](NC(=O)c4cc5cc(C(=O)P(=O)(O)O)ccc5[nH]4)C(=O)N32)cc1 [Compound 21, (2-(((5S,8S,10aR)-8-(((S)-5-amino-1-((4-(ethylsulfonyl)benzyl)amino)-1,5-dioxopentan-2-yl)carbamoyl)-3-(5-(1-((R)-2-((2S,4R)-4-hydroxy-2-(((R)-1-(4-(4-methylthiazol-5-yl)phenyl)ethyl)carbamoyl)pyrrolidin-1-yl)-1-(1-methylpiperidin-4-yl)-2-oxoethyl)-1H-1,2,3-triazol-4-yl)pentanoyl)-6-oxodecahydropyrrolo[1,2-a][1,5]diazocin-5-yl)carbamoyl)-1H-indole-5-carbonyl)phosphonic acid] | > 80 | < 10 | < 10 | –
CCS(=O)(=O)c1ccc(CNC(=O)[C@H](CCC(N)=O)NC(=O)[C@@H]2CC[C@@H]3CCN(C(=O)CCCCCc4cn([C@H](C(=O)N5C[C@H](O)C[C@H]5C(=O)N[C@@H](COCCOCCOC)c5ccc(-c6scnc6C)cc5)C(C)(C)C)nn4)C[C@H](NC(=O)c4cc5cc(C(=O)P(=O)(O)O)ccc5[nH]4)C(=O)N32)cc1 [Compound 26] | > 80 | < 10 | – | –
COCCOCCOC[C@H](NC(=O)[C@@H]1C[C@@H](O)CN1C(=O)[C@@H](n1cc(CCCc2cccc(OC[C@H](CCC(N)=O)NC(=O)[C@@H]3CC[C@@H]4CCN(C(C)=O)C[C@H](NC(=O)c5cc6cc(C(=O)P(=O)(O)O)ccc6[nH]5)C(=O)N43)c2Cl)nn1)C(C)(C)C)c1ccc(-c2scnc2C)cc1 [Compound 41, (2-(((5S,8S,10aR)-3-acetyl-8-(((S)-5-amino-1-(2-chloro-3-(3-(1-((S)-1-((2S,4R)-4-hydroxy-2-(((R)-2-(2-(2-methoxyethoxy)ethoxy)-1-(4-(4-methylthiazol-5-yl)phenyl)ethyl)carbamoyl)pyrrolidin-1-yl)-3,3-dimethyl-1-oxobutan-2-yl)-1H-1,2,3-triazol-4-yl)propyl)phenoxy)-5-oxopentan-2-yl)carbamoyl)-6-oxodecahydropyrrolo[1,2-a][1,5]diazocin-5-yl)carbamoyl)-1H-indole-5-carbonyl)phosphonic acid] | – | 10 to 100 | 10 to 100 | A (A (>=80%))
CCS(=O)(=O)c1ccc(CNC(=O)[C@H](CCC(N)=O)NC(=O)[C@@H]2CC[C@@H]3CCN(C(=O)CCCCCc4cn([C@@H](C(=O)N5C[C@@H](O)C[C@@H]5C(=O)N[C@@H](C)c5ccc(-c6scnc6C)cc5)C5CCOCC5)nn4)C[C@H](NC(=O)c4cc5cc(C(=O)P(=O)(O)O)ccc5[nH]4)C(=O)N32)cc1 [Compound 29, (2-(((5S,8S,10aR)-8-(((S)-5-amino-1-((4-(ethylsulfonyl)benzyl)amino)-1,5-dioxopentan-2-yl)carbamoyl)-3-(6-(1-((R)-2-((2R,4S)-4-hydroxy-2-(((S)-1-(4-(4-methylthiazol-5-yl)phenyl)ethyl)carbamoyl)pyrrolidin-1-yl)-2-oxo-1-(tetrahydro-2H-pyran-4-yl)ethyl)-1H-1,2,3-triazol-4-yl)hexanoyl)-6-oxodecahydropyrrolo[1,2-a][1,5]diazocin-5-yl)carbamoyl)-1H-indole-5-carbonyl)phosphonic acid] | > 80 | < 10 | – | –
CCS(=O)(=O)c1ccc(CNC(=O)[C@H](CCC(N)=O)NC(=O)[C@@H]2CC[C@@H]3CCN(C(=O)CCCCCc4cn([C@H](C(=O)N5C[C@H](O)C[C@H]5C(=O)N[C@@H](COCCOCCOCCOC)c5ccc(-c6scnc6C)cc5)C(C)(C)C)nn4)C[C@H](NC(=O)c4cc5cc(C(=O)P(=O)(O)O)ccc5[nH]4)C(=O)N32)cc1 [Compound 45] | > 80 | 10 to 100 | 10 to 100 | –
CCS(=O)(=O)c1ccc(OC[C@H](CCC(N)=O)NC(=O)[C@@H]2CC[C@@H]3CCN(C(=O)CCCCc4cn([C@H](C(=O)N5C[C@H](O)C[C@H]5C(=O)N[C@@H](C)c5ccc(-c6scnc6C)cc5)C(C)(C)C)nn4)C[C@H](NC(=O)c4cc5cc(C(=O)P(=O)(O)O)ccc5[nH]4)C(=O)N32)cc1 [Compound 34, (2-(((5S,8S,10aR)-8-(((S)-5-amino-1-(4-(ethylsulfonyl)phenoxy)-5-oxopentan-2-yl)carbamoyl)-3-(5-(1-((S)-1-((2S,4R)-4-hydroxy-2-(((S)-1-(4-(4-methylthiazol-5-yl)phenyl)ethyl)carbamoyl)pyrrolidin-1-yl)-3,3-dimethyl-1-oxobutan-2-yl)-1H-1,2,3-triazol-4-yl)pentanoyl)-6-oxodecahydropyrrolo[1,2-a][1,5]diazocin-5-yl)carbamoyl)-1H-indole-5-carbonyl)phosphonic acid] | 60 to 80 | 10 to 100 | – | –
CC(=O)N1CC[C@H]2CC[C@@H](C(=O)N[C@@H](CCC(N)=O)COc3cccc(CCCc4cn([C@H](C(=O)N5C[C@H](O)C[C@H]5C(=O)N[C@@H](C)c5ccc(-c6scnc6C)cc5)C(C)(C)C)nn4)c3Cl)N2C(=O)[C@@H](NC(=O)c2cc3cc(C(F)(F)P(=O)(O)O)ccc3s2)C1 [Compound 44] | > 80 | < 10 | – | –
CCS(=O)(=O)c1ccc(CNC(=O)[C@H](CCC(N)=O)NC(=O)[C@@H]2CC[C@@H]3CCN(C(=O)CCCCCc4cn([C@@H](C(=O)N5C[C@@H](O)C[C@@H]5C(=O)N[C@@H](C)c5ccc(-c6scnc6C)cc5)C5CCCCC5)nn4)C[C@H](NC(=O)c4cc5cc(C(=O)P(=O)(O)O)ccc5[nH]4)C(=O)N32)cc1 [Compound 28, (2-(((5S,8S,10aR)-8-(((S)-5-amino-1-((4-(ethylsulfonyl)benzyl)amino)-1,5-dioxopentan-2-yl)carbamoyl)-3-(6-(1-((R)-1-cyclohexyl-2-((2R,4S)-4-hydroxy-2-(((S)-1-(4-(4-methylthiazol-5-yl)phenyl)ethyl)carbamoyl)pyrrolidin-1-yl)-2-oxoethyl)-1H-1,2,3-triazol-4-yl)hexanoyl)-6-oxodecahydro-pyrrolo[1,2-a][1,5]diazocin-5-yl)carbamoyl)-1H-indole-5-carbonyl)phosphonic acid] | > 80 | < 10 | – | –
